This passage reports inhibition results from ChEMBL document CHEMBL3808394, “Synthesis and decreasing Aβ content evaluation of arctigenin-4-yl carbamate derivatives” (Bioorg Med Chem Lett, 2016).

Molecules are shown by their SMILES. The source made the active and inactive calls. No cut-off for these calls is given here.

Holding throughout (assay type): cell-based
Test [1] deals with Amyloid-beta precursor protein (Homo sapiens) (UniProt P05067). Nature of the test: Reduction in amyloid beta 40 content (unknown origin) expressed in HEK293 cells expressing APP K595N/M596L Swedish mutant at 20 uM after 24 hrs by ELISA.
For test [2] the target is unchanged. Nature of the test: Reduction in amyloid beta 40 content (unknown origin) expressed in HEK293 cells expressing APP K595N/M596L Swedish mutant at 0.1 uM after 24 hrs by ELISA.
Test [3] has the same target. Kind of test: Reduction in amyloid beta 40 content (unknown origin) expressed in HEK293 cells expressing APP K595N/M596L Swedish mutant at 10 uM after 24 hrs by ELISA.
The target is the same in test [4]. Nature of the test: Reduction in amyloid beta 40 content (unknown origin) expressed in HEK293 cells expressing APP K595N/M596L Swedish mutant at 1 uM after 24 hrs by ELISA.

Sequence of Amyloid-beta precursor protein (Homo sapiens) (P05067 whole entry): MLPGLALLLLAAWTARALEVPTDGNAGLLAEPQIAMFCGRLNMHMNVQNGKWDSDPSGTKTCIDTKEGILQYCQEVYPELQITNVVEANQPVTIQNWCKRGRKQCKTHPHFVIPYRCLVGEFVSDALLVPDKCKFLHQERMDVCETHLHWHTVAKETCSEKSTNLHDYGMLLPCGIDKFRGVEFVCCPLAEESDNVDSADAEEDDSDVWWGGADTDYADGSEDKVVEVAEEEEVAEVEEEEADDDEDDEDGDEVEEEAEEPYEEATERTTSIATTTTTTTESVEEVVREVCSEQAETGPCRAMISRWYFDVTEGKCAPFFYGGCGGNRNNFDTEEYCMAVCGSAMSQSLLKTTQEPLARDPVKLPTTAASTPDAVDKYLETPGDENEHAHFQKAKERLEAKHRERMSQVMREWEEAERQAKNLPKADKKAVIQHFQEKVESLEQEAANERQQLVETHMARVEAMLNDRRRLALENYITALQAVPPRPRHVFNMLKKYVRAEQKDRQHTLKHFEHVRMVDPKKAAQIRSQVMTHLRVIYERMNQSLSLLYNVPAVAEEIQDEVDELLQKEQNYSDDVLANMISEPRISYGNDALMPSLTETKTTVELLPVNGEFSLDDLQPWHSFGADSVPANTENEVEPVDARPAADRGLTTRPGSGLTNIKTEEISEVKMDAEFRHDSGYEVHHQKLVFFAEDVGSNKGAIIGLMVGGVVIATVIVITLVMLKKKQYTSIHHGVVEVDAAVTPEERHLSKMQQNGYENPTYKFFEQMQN

Regarding `COc1cccc(NC(=O)Oc2ccc(C[C@H]3C(=O)OC[C@@H]3Cc3ccc(OC)c(OC)c3)cc2OC)c1`, the inhibition in test [1] came to 52.8%.

Consider `CNC(=O)Oc1ccc(C[C@H]2C(=O)OC[C@@H]2Cc2ccc(OC)c(OC)c2)cc1OC`, for which the inhibition in test [1] came to 29.8%.

In the case of `COc1ccc(C[C@H]2COC(=O)[C@@H]2Cc2ccc(OC(=O)Nc3ccc(F)c(Cl)c3)c(OC)c2)cc1OC`, in test [1], the inhibition was 60.5%.

For the compound `COc1ccc(Cl)cc1NC(=O)Oc1ccc(C[C@H]2C(=O)OC[C@@H]2Cc2ccc(OC)c(OC)c2)cc1OC`, the inhibition in test [1] is 42.4%.

With `COc1ccc(C[C@H]2COC(=O)[C@@H]2Cc2ccc(OC(=O)Nc3cccc(Cl)c3)c(OC)c2)cc1OC`, the inhibition in test [1] was 78.7%. Also, the inhibition entry in test [2] is “inactive”. Further, the inhibition entry in test [3] and in test [4] was “Active” throughout.

In test [1], `COc1ccc(C[C@H]2COC(=O)[C@@H]2Cc2ccc(OC(=O)Nc3cc(Cl)cc(Cl)c3)c(OC)c2)cc1OC` registered an inhibition of 56%.

`COc1ccc(NC(=O)Oc2ccc(C[C@H]3C(=O)OC[C@@H]3Cc3ccc(OC)c(OC)c3)cc2OC)cc1` returned an inhibition in test [1] of 52.9%.

In the case of `COc1ccc(C[C@H]2COC(=O)[C@@H]2Cc2ccc(OC(=O)Nc3cccc([N+](=O)[O-])c3)c(OC)c2)cc1OC`, in test [1], the inhibition turned out to be 63%.

Turning to `COc1ccc(C[C@H]2COC(=O)[C@@H]2Cc2ccc(OC(=O)N[C@H](C)c3ccccc3)c(OC)c2)cc1OC`, the inhibition in test [1] turned out to be 45%.

Consider `COc1ccc(C[C@H]2COC(=O)[C@@H]2Cc2ccc(OC(=O)N(C)c3cccc(Cl)c3)c(OC)c2)cc1OC`, for which the inhibition in test [1] was found to be 41%.

In test [1], `COc1ccc(C[C@H]2COC(=O)[C@@H]2Cc2ccc(OC(=O)N(C)c3ccccc3)c(OC)c2)cc1OC` gave an inhibition of 30%.

In turn, `COc1ccc(C[C@H]2COC(=O)[C@@H]2Cc2ccc(OC(=O)Nc3cccc(F)c3)c(OC)c2)cc1OC` registered an inhibition in test [1] of 61%.

In test [1], `COc1ccc(C[C@H]2COC(=O)[C@@H]2Cc2ccc(N3CCCCC3)c(OC)c2)cc1OC` returned an inhibition of 26.2%.

Compound `COc1cc(C[C@H]2C(=O)OC[C@@H]2Cc2ccc(OC)c(OC)c2)ccc1O` showed an inhibition in test [1] of 44.6%. The inhibition entry in test [2] and in test [4] was “inactive” in each case. Further, the inhibition entry in test [3] is “Active”.

The compound `COc1ccc(C[C@H]2COC(=O)[C@@H]2Cc2ccc(OC(=O)Nc3ccc(Cl)cc3)c(OC)c2)cc1OC` displayed an inhibition in test [1] of 66.9%. Moreover, in test [2], the inhibition result was “inactive”. Further, the inhibition result in test [3] and in test [4] was “Active” in each case.

Compound `COc1ccc(C[C@H]2COC(=O)[C@@H]2Cc2ccc(OC(=O)NC(C)C)c(OC)c2)cc1OC` gave an inhibition in test [1] of 21.4%.

`COc1ccccc1NC(=O)Oc1ccc(C[C@H]2C(=O)OC[C@@H]2Cc2ccc(OC)c(OC)c2)cc1OC` returned an inhibition in test [1] of 61.7%.

`COc1ccc(C[C@H]2COC(=O)[C@@H]2Cc2ccc(OC(=O)Nc3cccc(C)c3)c(OC)c2)cc1OC` returned an inhibition in test [1] of 55%.

`CCNC(=O)Oc1ccc(C[C@H]2C(=O)OC[C@@H]2Cc2ccc(OC)c(OC)c2)cc1OC` returned an inhibition in test [1] of 36.3%.

The compound `COc1ccc(C[C@H]2COC(=O)[C@@H]2Cc2ccc(OC(=O)NCCc3ccccc3)c(OC)c2)cc1OC` yielded an inhibition in test [1] of 49%.

With `COc1ccc(C[C@H]2COC(=O)[C@@H]2Cc2ccc(OC(=O)Nc3ccccc3Cl)c(OC)c2)cc1OC`, in test [1], the inhibition was 58.3%.

Turning to `COc1ccc(C[C@H]2COC(=O)[C@@H]2Cc2ccc(OC(=O)Nc3ccc(C)c(Cl)c3)c(OC)c2)cc1OC`, the inhibition in test [1] was 53.7%.

`COc1ccc(C[C@H]2COC(=O)[C@@H]2Cc2ccc(OC(=O)NCc3ccccc3)c(OC)c2)cc1OC` had an inhibition in test [1] of 41.3%.

In test [1], `COc1ccc(C[C@H]2COC(=O)[C@@H]2Cc2ccc(OC(=O)Nc3cccc(C#N)c3)c(OC)c2)cc1OC` registered an inhibition of 56%.

As for `COc1ccc(C[C@H]2COC(=O)[C@@H]2Cc2ccc(OC(=O)Nc3ccccc3)c(OC)c2)cc1OC`, the inhibition in test [1] was 43.5%.

The compound `CCCNC(=O)Oc1ccc(C[C@H]2C(=O)OC[C@@H]2Cc2ccc(OC)c(OC)c2)cc1OC` gave an inhibition in test [1] of 20.3%.

In test [1], `COc1ccc(C[C@H]2COC(=O)[C@@H]2Cc2ccc(OC(=O)N(C)C)c(OC)c2)cc1OC` registered an inhibition of 28.5%.

Compound `CCN(CC)C(=O)Oc1ccc(C[C@H]2C(=O)OC[C@@H]2Cc2ccc(OC)c(OC)c2)cc1OC` gave an inhibition in test [1] of 11.9%.

As to `COc1ccc(C[C@H]2COC(=O)[C@@H]2Cc2ccc(OC(=O)NC3CCCCC3)c(OC)c2)cc1OC`, the inhibition in test [1] was 35.4%.

`COc1ccc(C[C@H]2COC(=O)[C@@H]2Cc2ccc(OC(=O)N[C@@H](C)c3ccccc3)c(OC)c2)cc1OC` had an inhibition in test [1] of 70.8%.

As for `COc1ccc(C[C@H]2COC(=O)[C@@H]2Cc2ccc(OC(=O)Nc3cccc(Cl)c3C)c(OC)c2)cc1OC`, in test [1], the inhibition is 62.8%.
